Laboratory results: article PMC8217813, “Bridging Computational Vaccinology and Vaccine Development Through Systematic Identification, Characterization, and Downselection of Conserved and Variable Circumsporozoite Protein CD4 T Cell Epitopes From Diverse Plasmodium falciparum Strains” (Frontiers in Immunology, 2021)
Peptide text beside a SMILES is read from it.

Columns and labels:
HLA A*0101 = molecular target: T1, HLA A*0101 (Homo sapiens, UniProt P04439, A114D/A174V/A182V/D101N/D185E/E176A/E190D/L180R/Q94H/R68K/S129P/T187R/V100A/V91M/W191G); experiment: biochemical; type: binding; details: allele A0101; cell-free competition with fluorescently labeled control peptide, fluorescence polarization at 72 hours; read-out: IC50
T1 construct: Pure Protein, LLC (ran the assay)

[1] = test system: CD4 T cells co-cultured with autologous DCs from PBMCs; type: cell-based, human; details: positive = Stimulation Index ≥1.5-fold above baseline, 5 µg/mL peptide; for Percentage of donors demonstrating IFN-γ responses, DR1 / Percentage of donors demonstrating IL-2 responses, DR1 / Percentage of donors demonstrating IL-4 responses, DR1 / Percentage of donors demonstrating IL-10 responses, DR1 / Percentage of donors demonstrating TNF-α responses, DR1: DR1 donors N=5; for Percentage of donors demonstrating IFN-γ responses, DR1 / Percentage of donors demonstrating IFN-γ responses, DR3 / Percentage of donors demonstrating IFN-γ responses, DR4 / Percentage of donors demonstrating IFN-γ responses, DR7 / Percentage of donors demonstrating IFN-γ responses, DR8 / Percentage of donors demonstrating IFN-γ responses, DR9 / Percentage of donors demonstrating IFN-γ responses, DR11 / Percentage of donors demonstrating IFN-γ responses, DR13 / Percentage of donors demonstrating IFN-γ responses, DR15: ICCS after 14-day co-culture; for Percentage of donors demonstrating IL-2 responses, DR1 / Percentage of donors demonstrating IL-4 responses, DR1 / Percentage of donors demonstrating IL-10 responses, DR1 / Percentage of donors demonstrating TNF-α responses, DR1 / Percentage of donors demonstrating IL-2 responses, DR3 / Percentage of donors demonstrating IL-4 responses, DR3 / Percentage of donors demonstrating IL-10 responses, DR3 / Percentage of donors demonstrating TNF-α responses, DR3 / Percentage of donors demonstrating IL-2 responses, DR4 / Percentage of donors demonstrating IL-4 responses, DR4 / Percentage of donors demonstrating IL-10 responses, DR4 / Percentage of donors demonstrating TNF-α responses, DR4 / Percentage of donors demonstrating IL-2 responses, DR7 / Percentage of donors demonstrating IL-4 responses, DR7 / Percentage of donors demonstrating IL-10 responses, DR7 / Percentage of donors demonstrating TNF-α responses, DR7 / Percentage of donors demonstrating IL-2 responses, DR8 / Percentage of donors demonstrating IL-4 responses, DR8 / Percentage of donors demonstrating IL-10 responses, DR8 / Percentage of donors demonstrating TNF-α responses, DR8 / Percentage of donors demonstrating IL-2 responses, DR9 / Percentage of donors demonstrating IL-4 responses, DR9 / Percentage of donors demonstrating IL-10 responses, DR9 / Percentage of donors demonstrating TNF-α responses, DR9 / Percentage of donors demonstrating IL-2 responses, DR11 / Percentage of donors demonstrating IL-4 responses, DR11 / Percentage of donors demonstrating IL-10 responses, DR11 / Percentage of donors demonstrating TNF-α responses, DR11 / Percentage of donors demonstrating IL-2 responses, DR13 / Percentage of donors demonstrating IL-4 responses, DR13 / Percentage of donors demonstrating IL-10 responses, DR13 / Percentage of donors demonstrating TNF-α responses, DR13 / Percentage of donors demonstrating IL-2 responses, DR15 / Percentage of donors demonstrating IL-4 responses, DR15 / Percentage of donors demonstrating IL-10 responses, DR15 / Percentage of donors demonstrating TNF-α responses, DR15: ICCS; for Percentage of donors demonstrating IFN-γ responses, DR3 / Percentage of donors demonstrating IL-2 responses, DR3 / Percentage of donors demonstrating IL-4 responses, DR3 / Percentage of donors demonstrating IL-10 responses, DR3 / Percentage of donors demonstrating TNF-α responses, DR3: DR3 donors N=6; for Percentage of donors demonstrating IFN-γ responses, DR4 / Percentage of donors demonstrating IL-2 responses, DR4 / Percentage of donors demonstrating IL-4 responses, DR4 / Percentage of donors demonstrating IL-10 responses, DR4 / Percentage of donors demonstrating TNF-α responses, DR4: DR4 donors N=10; for Percentage of donors demonstrating IFN-γ responses, DR7 / Percentage of donors demonstrating IL-2 responses, DR7 / Percentage of donors demonstrating IL-4 responses, DR7 / Percentage of donors demonstrating IL-10 responses, DR7 / Percentage of donors demonstrating TNF-α responses, DR7: DR7 donors N=4; for Percentage of donors demonstrating IFN-γ responses, DR8 / Percentage of donors demonstrating IL-2 responses, DR8 / Percentage of donors demonstrating IL-4 responses, DR8 / Percentage of donors demonstrating IL-10 responses, DR8 / Percentage of donors demonstrating TNF-α responses, DR8: DR8 donors N=4; for Percentage of donors demonstrating IFN-γ responses, DR9 / Percentage of donors demonstrating IL-2 responses, DR9 / Percentage of donors demonstrating IL-4 responses, DR9 / Percentage of donors demonstrating IL-10 responses, DR9 / Percentage of donors demonstrating TNF-α responses, DR9: DR9 donors N=4; for Percentage of donors demonstrating IFN-γ responses, DR11 / Percentage of donors demonstrating IL-2 responses, DR11 / Percentage of donors demonstrating IL-4 responses, DR11 / Percentage of donors demonstrating IL-10 responses, DR11 / Percentage of donors demonstrating TNF-α responses, DR11: DR11 donors N=4; for Percentage of donors demonstrating IFN-γ responses, DR13 / Percentage of donors demonstrating IL-2 responses, DR13 / Percentage of donors demonstrating IL-4 responses, DR13 / Percentage of donors demonstrating IL-10 responses, DR13 / Percentage of donors demonstrating TNF-α responses, DR13: DR13 donors N=7; for Percentage of donors demonstrating IFN-γ responses, DR15 / Percentage of donors demonstrating IL-2 responses, DR15 / Percentage of donors demonstrating IL-4 responses, DR15 / Percentage of donors demonstrating IL-10 responses, DR15 / Percentage of donors demonstrating TNF-α responses, DR15: DR15 donors N=7

CC[C@H](C)[C@H](NC(=O)[C@H](CO)NC(=O)[C@H](CO)NC(=O)[C@@H](N)CC(N)=O)C(=O)NCC(=O)N[C@@H](CC(C)C)C(=O)N[C@H](C(=O)N[C@@H](CCSC)C(=O)N[C@H](C(=O)O)C(C)C)[C@@H](C)CC [Cluster 382_3D7] (H-NSSIGLIMV-OH)
IC50 (HLA A*0101): 215 µM

CC(C)C[C@H](NC(=O)[C@H](CCC(N)=O)NC(=O)[C@H](CC(=O)O)NC(=O)[C@H](CCCCN)NC(=O)[C@@H]1CCCN1C(=O)[C@H](CCCCN)NC(=O)[C@H](CC(=O)O)NC(=O)[C@H](C)NC(=O)[C@@H](N)CO)C(=O)N[C@@H](CC(=O)O)C(=O)O [Cluster 350_CVX65] (H-SADKPKDQLD-OH)
IC50 (HLA A*0101): 8.97 µM

CC(C)[C@H](NC(=O)[C@H](CO)NC(=O)[C@H](CO)NC(=O)[C@@H](N)CS)C(=O)N[C@@H](Cc1ccccc1)C(=O)N[C@@H](CC(N)=O)C(=O)N[C@H](C(=O)N[C@H](C(=O)N[C@@H](CC(N)=O)C(=O)O)C(C)C)C(C)C [Cluster 374_3D7] (H-CSSVFNVVN-OH)
IC50 (HLA A*0101): 82.5 µM

CC(C)[C@H](NC(=O)[C@@H](N)CC(N)=O)C(=O)N[C@@H](CC(=O)O)C(=O)N[C@@H](CCC(=O)O)C(=O)N[C@@H](CC(N)=O)C(=O)N[C@@H](C)C(=O)N[C@@H](CC(N)=O)C(=O)N[C@@H](C)C(=O)N[C@@H](CC(N)=O)C(=O)N[C@@H](CC(N)=O)C(=O)O [Cluster 292_CVX337] (H-NVDENANANN-OH)
IC50 (HLA A*0101): 667 µM

DQHIEQYLKKIQNSISTEWS [ICS3]
Percentage of donors demonstrating IFN-γ responses, DR1 [1]: 80%
Percentage of donors demonstrating IL-2 responses, DR1 [1]: 80%
Percentage of donors demonstrating IL-4 responses, DR1 [1]: 0%
Percentage of donors demonstrating IL-10 responses, DR1 [1]: 20%
Percentage of donors demonstrating TNF-α responses, DR1 [1]: 60%
Percentage of donors demonstrating IFN-γ responses, DR3 [1]: 33%
Percentage of donors demonstrating IL-2 responses, DR3 [1]: 0%
Percentage of donors demonstrating IL-4 responses, DR3 [1]: 17%
Percentage of donors demonstrating IL-10 responses, DR3 [1]: 17%
Percentage of donors demonstrating TNF-α responses, DR3 [1]: 0%
Percentage of donors demonstrating IFN-γ responses, DR4 [1]: 30%
Percentage of donors demonstrating IL-2 responses, DR4 [1]: 40%
Percentage of donors demonstrating IL-4 responses, DR4 [1]: 10%
Percentage of donors demonstrating IL-10 responses, DR4 [1]: 0%
Percentage of donors demonstrating TNF-α responses, DR4 [1]: 40%
Percentage of donors demonstrating IFN-γ responses, DR7 [1]: 75%
Percentage of donors demonstrating IL-2 responses, DR7 [1]: 50%
Percentage of donors demonstrating IL-4 responses, DR7 [1]: 0%
Percentage of donors demonstrating IL-10 responses, DR7 [1]: 0%
Percentage of donors demonstrating TNF-α responses, DR7 [1]: 50%
Percentage of donors demonstrating IFN-γ responses, DR8 [1]: 0%
Percentage of donors demonstrating IL-2 responses, DR8 [1]: 0%
Percentage of donors demonstrating IL-4 responses, DR8 [1]: 0%
Percentage of donors demonstrating IL-10 responses, DR8 [1]: 0%
Percentage of donors demonstrating TNF-α responses, DR8 [1]: 25%
Percentage of donors demonstrating IFN-γ responses, DR9 [1]: 0%
Percentage of donors demonstrating IL-2 responses, DR9 [1]: 0%
Percentage of donors demonstrating IL-4 responses, DR9 [1]: 0%
Percentage of donors demonstrating IL-10 responses, DR9 [1]: 0%
Percentage of donors demonstrating TNF-α responses, DR9 [1]: 25%
Percentage of donors demonstrating IFN-γ responses, DR11 [1]: 25%
Percentage of donors demonstrating IL-2 responses, DR11 [1]: 25%
Percentage of donors demonstrating IL-4 responses, DR11 [1]: 0%
Percentage of donors demonstrating IL-10 responses, DR11 [1]: 0%
Percentage of donors demonstrating TNF-α responses, DR11 [1]: 50%
Percentage of donors demonstrating IFN-γ responses, DR13 [1]: 0%
Percentage of donors demonstrating IL-2 responses, DR13 [1]: 0%
Percentage of donors demonstrating IL-4 responses, DR13 [1]: 0%
Percentage of donors demonstrating IL-10 responses, DR13 [1]: 0%
Percentage of donors demonstrating TNF-α responses, DR13 [1]: 14%
Percentage of donors demonstrating IFN-γ responses, DR15 [1]: 14%
Percentage of donors demonstrating IL-2 responses, DR15 [1]: 14%
Percentage of donors demonstrating IL-4 responses, DR15 [1]: 0%
Percentage of donors demonstrating IL-10 responses, DR15 [1]: 14%
Percentage of donors demonstrating TNF-α responses, DR15 [1]: 29%

CC(C)[C@H](NC(=O)[C@H](CO)NC(=O)[C@H](CS)NC(=O)[C@@H]1CCCN1C(=O)[C@H](CO)NC(=O)[C@H](Cc1c[nH]c2ccccc12)NC(=O)[C@H](CCC(=O)O)NC(=O)[C@@H](NC(=O)[C@@H](N)CO)[C@@H](C)O)C(=O)O [Cluster 328_3D7] (H-STEWSPCSV-OH)
IC50 (HLA A*0101): 3.18 µM

DQHIEKYLKTIKNSLSTEWS [ICS10]
Percentage of donors demonstrating IFN-γ responses, DR1 [1]: 20%
Percentage of donors demonstrating IL-2 responses, DR1 [1]: 0%
Percentage of donors demonstrating IL-4 responses, DR1 [1]: 0%
Percentage of donors demonstrating IL-10 responses, DR1 [1]: 0%
Percentage of donors demonstrating TNF-α responses, DR1 [1]: 0%
Percentage of donors demonstrating IFN-γ responses, DR3 [1]: 33%
Percentage of donors demonstrating IL-2 responses, DR3 [1]: 17%
Percentage of donors demonstrating IL-4 responses, DR3 [1]: 17%
Percentage of donors demonstrating IL-10 responses, DR3 [1]: 0%
Percentage of donors demonstrating TNF-α responses, DR3 [1]: 17%
Percentage of donors demonstrating IFN-γ responses, DR4 [1]: 40%
Percentage of donors demonstrating IL-2 responses, DR4 [1]: 30%
Percentage of donors demonstrating IL-4 responses, DR4 [1]: 0%
Percentage of donors demonstrating IL-10 responses, DR4 [1]: 10%
Percentage of donors demonstrating TNF-α responses, DR4 [1]: 10%
Percentage of donors demonstrating IFN-γ responses, DR7 [1]: 75%
Percentage of donors demonstrating IL-2 responses, DR7 [1]: 25%
Percentage of donors demonstrating IL-4 responses, DR7 [1]: 0%
Percentage of donors demonstrating IL-10 responses, DR7 [1]: 25%
Percentage of donors demonstrating TNF-α responses, DR7 [1]: 25%
Percentage of donors demonstrating IFN-γ responses, DR8 [1]: 0%
Percentage of donors demonstrating IL-2 responses, DR8 [1]: 0%
Percentage of donors demonstrating IL-4 responses, DR8 [1]: 0%
Percentage of donors demonstrating IL-10 responses, DR8 [1]: 0%
Percentage of donors demonstrating TNF-α responses, DR8 [1]: 0%
Percentage of donors demonstrating IFN-γ responses, DR9 [1]: 25%
Percentage of donors demonstrating IL-2 responses, DR9 [1]: 25%
Percentage of donors demonstrating IL-4 responses, DR9 [1]: 0%
Percentage of donors demonstrating IL-10 responses, DR9 [1]: 0%
Percentage of donors demonstrating TNF-α responses, DR9 [1]: 25%
Percentage of donors demonstrating IFN-γ responses, DR11 [1]: 50%
Percentage of donors demonstrating IL-2 responses, DR11 [1]: 50%
Percentage of donors demonstrating IL-4 responses, DR11 [1]: 0%
Percentage of donors demonstrating IL-10 responses, DR11 [1]: 0%
Percentage of donors demonstrating TNF-α responses, DR11 [1]: 25%
Percentage of donors demonstrating IFN-γ responses, DR13 [1]: 29%
Percentage of donors demonstrating IL-2 responses, DR13 [1]: 14%
Percentage of donors demonstrating IL-4 responses, DR13 [1]: 0%
Percentage of donors demonstrating IL-10 responses, DR13 [1]: 0%
Percentage of donors demonstrating TNF-α responses, DR13 [1]: 14%
Percentage of donors demonstrating IFN-γ responses, DR15 [1]: 57%
Percentage of donors demonstrating IL-2 responses, DR15 [1]: 14%
Percentage of donors demonstrating IL-4 responses, DR15 [1]: 14%
Percentage of donors demonstrating IL-10 responses, DR15 [1]: 0%
Percentage of donors demonstrating TNF-α responses, DR15 [1]: 14%
